Values after ≈ are worked out from the molar mass of the structure shown. Active and inactive are the calls of the source. No cut-off for these calls is given here.
Legend:
[1] = system: Myzus persicae; assay: Insecticidal activity against Myzus persicae (green peach aphid) applied through atmospheric pressure fumigation at 760 mmHg for 2 hr at 23 +/- 1 degC; assay type: functional; conditions: read-out: LD50 (the source's name)
[2] = system: Myzus persicae; assay: Potentiation factor, ratio of LD50 for Myzus persicae (green peach aphid) applied through atmospheric pressure fumigation at 760 mmHg for 2 hr at 23 +/- 1 degC to LD50 for Myzus persicae (green peach aphid) applied through two-tier reduced pressure fumigation at 30 mmHg for 0.5 hr and then 760 mmHg for 1.5 hr at 23 +/- 1 degC; assay type: functional
[3] = system: Myzus persicae; assay: Insecticidal activity against Myzus persicae (green peach aphid) applied through two-tier reduced pressure fumigation at 30 mmHg for 0.5 hr and then 760 mmHg for 1.5 hr at 23 +/- 1 degC; assay type: functional; conditions: for LC50: Myzus persicae, read-out: LD50 (the source's name)
[4] = system: Persea americana; assay: Phytotoxicity in Persea americana (avocado) assessed as induction of visual damage after compound application for 1 hr through two-tier reduced pressure fumigation at 30 mmHg for 0.5 hr and then 760 mmHg for 1.5 hr at 23 +/- 1 degC; assay type: organism-based; conditions: in vivo
[5] = system: Pseudococcus viburni; assay: Insecticidal activity against Pseudococcus viburni; assay type: functional, organism-based
[6] = system: Vitis vinifera; assay: (§1) Phytotoxicity in Vitis vinifera assessed as induction of olfactory damage after compound application for 1 hr through two-tier reduced pressure fumigation at 30 mmHg for 0.5 hr and then 760 mmHg for 1.5 hr at 23 +/- 1 degC; assay type: organism-based; conditions: in vivo
[7] = system: Brevicoryne brassicae; assay: Insecticidal activity against Brevicoryne brassicae (cabbage aphids); assay type: functional, organism-based
[8] = system: Myzus persicae; assay: Insecticidal activity against Myzus persicae (green peach aphid) infested naked lettuce applied for 1 hr through two-tier reduced pressure fumigation at 30 mmHg for 0.5 hr and then 760 mmHg for 1.5 hr at 23 +/- 1 degC measured 24 hr; assay type: functional, organism-based
[9] = system: Lactuca sativa; assay: Phytotoxicity in wrapped Lactuca sativa (lettuce) assessed as induction of visual damage after compound application for 1 hr through two-tier reduced pressure fumigation at 30 mmHg for 0.5 hr and then 760 mmHg for 1.5 hr at 23 +/- 1 degC; assay type: organism-based; conditions: in vivo
[10] = system: Brassica oleracea var. capitata; assay: Phytotoxicity in Brassica oleracea var. capitata (cabbage) after compound application for 1 hr through two-tier reduced pressure fumigation at 30 mmHg for 0.5 hr and then 760 mmHg for 1.5 hr at 23 +/- 1 degC; assay type: organism-based; conditions: in vivo
[11] = system: Tetranychus urticae; assay: Insecticidal activity against Tetranychus urticae (two-spotted spider mite); assay type: functional, organism-based
[12] = system: Citrus sinensis; assay: Phytotoxicity in Citrus sinensis (orange) assessed as induction of olfactory damage after compound application for 1 hr through two-tier reduced pressure fumigation at 30 mmHg for 0.5 hr and then 760 mmHg for 1.5 hr at 23 +/- 1 degC; assay type: organism-based; conditions: in vivo
[13] = system: Oryza sativa; assay: Phytotoxicity in Oryza sativa (rice) assessed as induction of visual damage after compound application for 1 hr through two-tier reduced pressure fumigation at 30 mmHg for 0.5 hr and then 760 mmHg for 1.5 hr at 23 +/- 1 degC; assay type: organism-based; conditions: in vivo
[14] = system: Phaseolus vulgaris; assay: PhytoToxicity in Phaseolus vulgaris (beans) assessed as induction of visual damage after compound application for 1 hr through two-tier reduced pressure fumigation at 30 mmHg for 0.5 hr and then 760 mmHg for 1.5 hr at 23 +/- 1 degC; assay type: organism-based; conditions: in vivo, other
[15] = system: Myzus persicae; assay: Insecticidal activity against Myzus persicae (green peach aphid) infested wrapped lettuce applied for 1 hr through two-tier reduced pressure fumigation at 30 mmHg for 0.5 hr and then 760 mmHg for 1.5 hr at 23 +/- 1 degC measured 24 hr; assay type: functional, organism-based
[16] = system: Citrus limon; assay: Phytotoxicity in Citrus limon (lemon) assessed as induction of olfactory damage after compound application for 1 hr through two-tier reduced pressure fumigation at 30 mmHg for 0.5 hr and then 760 mmHg for 1.5 hr at 23 +/- 1 degC; assay type: organism-based; conditions: citrus x limon, in vivo
[17] = system: Lactuca sativa; assay: Phytotoxicity in naked Lactuca sativa (lettuce) assessed as residual aldehyde odor after compound application through two-tier reduced pressure fumigation at 30 mmHg for 0.5 hr and then 760 mmHg for 1.5 hr at 23 +/- 1 degC after 2 hr; assay type: organism-based; conditions: in vivo
[18] = system: Myzus persicae; assay: Insecticidal activity against Myzus persicae (green peach aphid) placed under third leaf of naked Iceburg lettuce heads and after compound application for 2 hr through two-tier reduced pressure fumigation at 30 mmHg for 0.5 hr and then 760 mmHg for 1.5 hr at 23 +/- 1 degC measured after 24 hr; assay type: functional; conditions: for LC50: Myzus persicae, read-out: LD50 (the source's name)
[19] = system: Malus domestica; assay: Phytotoxicity in Malus x domestica (apple) assessed as induction of olfactory damage after compound application for 1 hr through two-tier reduced pressure fumigation at 30 mmHg for 0.5 hr and then 760 mmHg for 1.5 hr at 23 +/- 1 degC; assay type: organism-based; conditions: in vivo
[20] = system: Brassica oleracea var. italica; assay: Phytotoxicity in Brassica oleracea var. italica assessed as induction of visual damage after compound application for 1 hr through two-tier reduced pressure fumigation at 30 mmHg for 0.5 hr and then 760 mmHg for 1.5 hr at 23 +/- 1 degC; assay type: organism-based; conditions: in vivo
[21] = system: Bemisia; assay: Insecticidal activity against Bemisia sp.; assay type: functional, organism-based
[22] = system: Lactuca sativa; assay: Phytotoxicity in naked Lactuca sativa (lettuce) assessed as induction of olfactory damage after compound application for 1 hr through two-tier reduced pressure fumigation at 30 mmHg for 0.5 hr and then 760 mmHg for 1.5 hr at 23 +/- 1 degC; assay type: organism-based; conditions: in vivo
[23] = system: Pseudococcus affinis; assay: Insecticidal activity against Pseudococcus affinis; assay type: functional, organism-based
[24] = system: Frankliniella occidentalis; assay: Insecticidal activity against Frankliniella occidentalis (western flower thrips); assay type: functional, organism-based
[25] = system: Brassica oleracea var. italica; assay: Phytotoxicity in Brassica oleracea var. italica after compound application for 1 hr through two-tier reduced pressure fumigation at 30 mmHg for 0.5 hr and then 760 mmHg for 1.5 hr at 23 +/- 1 degC; assay type: organism-based; conditions: in vivo
[26] = system: Brassica oleracea var. capitata; assay: Phytotoxicity in Brassica oleracea var. capitata (cabbage) assessed as induction of visual damage after compound application for 1 hr through two-tier reduced pressure fumigation at 30 mmHg for 0.5 hr and then 760 mmHg for 1.5 hr at 23 +/- 1 degC; assay type: organism-based; conditions: in vivo
[27] = system: Vitis vinifera; assay: as §1; assay type: organism-based; conditions: in vivo; remark: listed apart in the source
[28] = system: Lactuca sativa; assay: Phytotoxicity in naked Lactuca sativa (lettuce) assessed as change in visual quality after compound application through two-tier reduced pressure fumigation at 30 mmHg for 0.5 hr and then 760 mmHg for 1.5 hr at 23 +/- 1 degC after 2 hr; assay type: organism-based; conditions: in vivo
[29] = system: Citrus x paradisi; assay: Phytotoxicity in Citrus x paradisi (grape fruit) assessed as induction of visual damage after compound application for 1 hr through two-tier reduced pressure fumigation at 30 mmHg for 0.5 hr and then 760 mmHg for 1.5 hr at 23 +/- 1 degC; assay type: organism-based; conditions: in vivo
[30] = system: Lactuca sativa; assay: Phytotoxicity in naked Lactuca sativa (lettuce) after compound application for 1 hr through two-tier reduced pressure fumigation at 30 mmHg for 0.5 hr and then 760 mmHg for 1.5 hr at 23 +/- 1 degC; assay type: organism-based; conditions: in vivo
[31] = system: Myzus persicae; assay: Insecticidal activity against Myzus persicae (green peach aphid) applied through two-tier reduced pressure fumigation at 30 mmHg for 0.5 hr and then 760 mmHg for 1.5 hr at 15 degC; assay type: functional; conditions: read-out: LD50 (the source's name)
[32] = system: Thysanoptera; assay: Insecticidal activity Thysanoptera (thrips) on flower bulbs; assay type: functional
[33] = system: Acari; assay: Insecticidal activity mites on flower bulbs; assay type: functional
[34] = system: Myzus persicae; assay: Insecticidal activity Myzus persicae (green peach aphid) on flower bulbs; assay type: functional
[35] = system: Frankliniella occidentalis; assay: Insecticidal activity against Frankliniella occidentalis (western flower thrips) larva and adults; assay type: functional
[36] = system: Oryza sativa; assay: Phytotoxicity in Oryza sativa (rice) assessed as induction of olfactory damage after compound application for 1 hr through two-tier reduced pressure fumigation at 30 mmHg for 0.5 hr and then 760 mmHg for 1.5 hr at 23 +/- 1 degC; assay type: organism-based; conditions: in vivo
[37] = system: Lactuca sativa; assay: Phytotoxicity in wrapped Lactuca sativa (lettuce) assessed as induction of olfactory damage after compound application for 1 hr through two-tier reduced pressure fumigation at 30 mmHg for 0.5 hr and then 760 mmHg for 1.5 hr at 23 +/- 1 degC; assay type: organism-based; conditions: in vivo
[38] = system: Brassica oleracea var. italica; assay: Phytotoxicity in Brassica oleracea var. italica assessed as induction of olfactory damage after compound application for 1 hr through two-tier reduced pressure fumigation at 30 mmHg for 0.5 hr and then 760 mmHg for 1.5 hr at 23 +/- 1 degC; assay type: organism-based; conditions: in vivo
[39] = system: Vitis vinifera; assay: (§2) Phytotoxicity in Vitis vinifera assessed as induction of visual damage after compound application for 1 hr through two-tier reduced pressure fumigation at 30 mmHg for 0.5 hr and then 760 mmHg for 1.5 hr at 23 +/- 1 degC; assay type: organism-based; conditions: in vivo
[40] = system: Vitis vinifera; assay: as §2; assay type: organism-based; conditions: in vivo; remark: listed apart in the source
[41] = system: Malus domestica; assay: Phytotoxicity in Malus x domestica (apple) assessed as induction of visual damage after compound application for 1 hr through two-tier reduced pressure fumigation at 30 mmHg for 0.5 hr and then 760 mmHg for 1.5 hr at 23 +/- 1 degC; assay type: organism-based; conditions: in vivo
[42] = system: Citrus x paradisi; assay: Phytotoxicity in Citrus x paradisi (grape fruit) assessed as induction of olfactory damage after compound application for 1 hr through two-tier reduced pressure fumigation at 30 mmHg for 0.5 hr and then 760 mmHg for 1.5 hr at 23 +/- 1 degC; assay type: organism-based; conditions: in vivo
[43] = system: Persea americana; assay: Phytotoxicity in Persea americana (avocado) assessed as induction of olfactory damage after compound application for 1 hr through two-tier reduced pressure fumigation at 30 mmHg for 0.5 hr and then 760 mmHg for 1.5 hr at 23 +/- 1 degC; assay type: organism-based; conditions: in vivo
[44] = system: Lactuca sativa; assay: Phytotoxicity in naked Lactuca sativa (lettuce) assessed as change in visual quality after compound application for 1 hr through two-tier reduced pressure fumigation at 30 mmHg for 0.5 hr and then 760 mmHg for 1.5 hr at 23 +/- 1 degC; assay type: organism-based; conditions: in vivo
[45] = system: Brassica oleracea var. capitata; assay: Phytotoxicity in Brassica oleracea var. capitata (cabbage) assessed as induction of olfactory damage after compound application for 1 hr through two-tier reduced pressure fumigation at 30 mmHg for 0.5 hr and then 760 mmHg for 1.5 hr at 23 +/- 1 degC; assay type: organism-based; conditions: in vivo

Row | Structure (SMILES) | LC50 [1] | Ratio [2] | LC50 [3] | Activity [4] | Activity [5] | Activity [6] | Activity [7] | Activity [8] | Activity [10] | Activity [11] | Activity [15] | Activity [17] | CTP [18] | LD90 [18] | LC50 [18] | Activity [19] | Activity [21] | Activity [23] | Activity [24] | Activity [28] | also measured
1 | CCCCCCC=O [HEPTANAL] | 15 µg/mL (≈ 131 µM) | 3 | 5 µg/mL (≈ 43.8 µM) |  |  |  |  |  |  |  |  |  |  |  |  |  |  |  |  |  | 
2 | CC/C=C/C=O [PENTENAL] |  |  |  | Toxic | Active | Non-toxic | inactive | Active | Toxic | inactive | Active | Toxic | 106 mg/L.hr | 25.8 mg/L | 13.1 µg/mL (≈ 156 µM) | Non-toxic | Active | Active | Active | Toxic | Activity [9]: Toxic; Activity [12]: Non-toxic; Activity [13]: Toxic; Activity [14]: Toxic; Activity [16]: Non-toxic; Activity [20]: Toxic; Activity [22]: Toxic; Activity [25]: Toxic; Activity [26]: Toxic; Activity [27]: Non-toxic; Activity [29]: Toxic; Activity [30]: Toxic
3 | CCCC=O [BUTANAL] | 26.1 µg/mL (≈ 362 µM) | 2.4 | 10.8 µg/mL (≈ 150 µM) |  | Active |  | inactive |  |  | inactive |  | Toxic |  | 177.5 mg/L | 130 µg/mL (≈ 1800 µM) |  | Active | Active | Active | Toxic | LC50 [31]: 31 µg/mL (≈ 430 µM); CTP [3]: 21.6 mg/L.hr
4 | CBr [BROMOMETHANE] |  |  |  |  |  |  |  |  |  |  |  |  |  |  |  |  |  |  |  |  | CTP [32]: 100 mg/L.hr; CTP [33]: 100 mg/L.hr; CTP [34]: 100 mg/L.hr; CTP [35]: 25 mg/L.hr
5 | C/C=C(\C)C=O [2-methyl-(E)-2-butenal] |  |  |  | Non-toxic | Active | Non-toxic | inactive | Active | Toxic | inactive | Active | Toxic | 310 mg/L.hr | 123.6 mg/L | 76.6 µg/mL (≈ 911 µM) | Non-toxic | Active | Active | Active | Toxic | Activity [36]: Toxic; Activity [37]: Toxic; Activity [38]: Toxic; Activity [22]: Toxic; Activity [39]: Non-toxic; Activity [40]: Non-toxic; Activity [25]: Toxic; Activity [41]: Non-toxic; Activity [42]: Non-toxic; Activity [43]: Non-toxic; Activity [27]: Non-toxic; Activity [44]: Toxic; Activity [45]: Toxic; Activity [29]: Non-toxic; Activity [30]: Toxic

— ChEMBL document CHEMBL3046689, “Volatile aldehydes are promising broad-spectrum postharvest insecticides” (J Agric Food Chem, 2000)
